Each structure is given as a SMILES string.

IC50 data for 53 compounds are collected here from patent publication US11744824B2, “2-amino-3-carbonyl imidazopyridine and pyrazolopyridine compounds” (1ST Biotherapeutics, Inc., priority 2020, dated 2023).

Experiment [1] deals with IL-6 secretion in BV-2 mouse microglia cells. The experiment in a line: IL-6 Secretion in BV-2 Cell (L18-MDP stimulated, ELISA). The experiment is classed as cell-based. To be noted: BV-2 cells, 10 μg/ml L18-MDP, 24 hr. Here is the method: IL-6 Secretion in BV-2 Cell
BV-2 mouse microglia cells were kindly provided from Dr. Bae in Korea Institute of Science and Technology (KIST). BV-2 cells were thawed and suspended in Dulbecco's modified eagle medium (DMEM) supplemented with 10% fetal bovine serum (FBS) and 1% Penicillin/Streptomycin. Cells were seeded into 96 well plates at 2×10^4 cells/well and allowed to attach for 24 hr. On the day of the experiment, various concentration of FB compounds was treated, and cells were stimulated with 10 μg/ml L18-MDP. After 24 hr incubation, supernatant was collected for cytokine assay.
Absorbance at 450 nm was measured using SpectraMax i3X microplate reader (Molecular Device). Values of media-only wells were subtracted and % inhibition for each compound concentration relative to the DMSO/L18-MDP-treated controls (100%) was calculated. The IC50 values were calculated from a series of percent activity values using software as implemented in the GraphPad Prism 7 software and SigmaPlot 13.0.

For experiment [2], the target named is GST-tagged recombinant human RIP2 (Homo sapiens (Human), UniProt O43353). In words: RIP2 Kinase Assay (ADP-Glo). It counts as biochemical. To be noted: in vitro kinase activity, ATP 25 μM. Here is the method:
GST-tagged recombinant human RIP2 (25 ng) is incubated with 5 μL of compounds (0.5% DMSO), 5 μL of MBP (0.5 μg/μl) and 5 μL of ATP (25 μM) in buffer (40 mM Tris, 7.5; 20 mM MgCl2; 0.1 mg/ml BSA; 50 μM DTT). The assay was started by incubating the reaction mixture in a 96-well plate at 30° C. for 60 minutes. After the incubation, 25 μL ADP-Glo reagent was added, and the reaction was incubated at 30° C. for 40 minutes to stop the reaction and degrade residual ATP. The ADP product was then converted to ATP by adding 50 μL per well of detection reagent. Luminescence was detected after 30 minutes room temperature incubation with the Molecular device I3X plate reader. The IC50 values were calculated from a series of percent inhibition values determined at a range of inhibitor concentration using software routines as implemented in the GraphPad Prism 7 software and SigmaPlot 13.0.

Sequence of GST-tagged recombinant human RIP2 (O43353 whole entry): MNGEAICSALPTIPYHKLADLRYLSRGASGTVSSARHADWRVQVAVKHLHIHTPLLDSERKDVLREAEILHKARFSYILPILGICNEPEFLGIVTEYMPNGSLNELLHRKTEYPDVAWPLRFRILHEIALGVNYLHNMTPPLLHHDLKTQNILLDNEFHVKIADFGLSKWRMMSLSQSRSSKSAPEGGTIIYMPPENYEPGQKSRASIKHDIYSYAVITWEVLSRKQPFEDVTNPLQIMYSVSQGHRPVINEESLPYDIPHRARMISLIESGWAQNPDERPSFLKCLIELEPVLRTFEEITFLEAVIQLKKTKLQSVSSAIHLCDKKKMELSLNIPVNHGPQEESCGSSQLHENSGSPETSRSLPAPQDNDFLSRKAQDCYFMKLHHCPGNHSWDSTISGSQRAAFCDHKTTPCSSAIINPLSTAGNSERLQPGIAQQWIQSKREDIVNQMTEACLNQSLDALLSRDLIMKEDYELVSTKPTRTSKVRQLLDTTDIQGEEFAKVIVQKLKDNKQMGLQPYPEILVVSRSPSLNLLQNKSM

For `Cc1ccc2[nH]ncc2c1-c1ccc2nc(N)c(C(=O)C3CC3)n2c1` [Example 3], the IC50 in experiment [1] is over 1000 nM; in experiment [2], 1 to 100 nM.

`Nc1nc2ccc(-c3cnc4[nH]ccc4c3)cn2c1C(=O)[C@@H]1C[C@@H]1F` [Example 32]: the 50% inhibitory concentration (IC50) in experiment [1] fell in the range of 101 to 500 nM; in experiment [2] it was 1 to 100 nM. The like results for `Nc1nc2ccc(-c3cnc4[nH]ccc4c3Cl)cn2c1C(=O)[C@@H]1C[C@@H]1F` [Example 41] were, in that order, 101 to 500 nM and 1 to 100 nM. For `Nc1nc2ccc(-c3cccc(F)c3Cl)cn2c1C(=O)[C@@H]1C[C@@H]1F` [Example 44] the same measures were 501 to 1000 nM and 1 to 100 nM. Regarding `Nc1nc2ccc(-c3c(Cl)c(F)cc4[nH]ncc34)cn2c1C(=O)[C@@H]1C[C@@H]1F` [Example 64], the IC50 in experiment [1] lay in the range of 101 to 500 nM; in experiment [2], 1 to 100 nM. For `CN(C)c1c(F)c(Cl)c(-c2ccc3nc(N)c(C(=O)[C@@H]4C[C@@H]4F)n3c2)c2cn[nH]c12` [Example 65] the same measures were over 1000 nM and over 1000 nM.

For `Nc1nc2ccc(-c3ccc4[nH]ccc4c3)cn2c1C(=O)c1ccccn1` [Example 67], the results for the IC50 in experiment [1] and in experiment [2] were 501 to 1000 nM and 1 to 100 nM, respectively. For `Nc1nc2ccc(-c3cnc4[nH]ccc4c3)cn2c1C(=O)c1ccccn1` [Example 68] the same measures were 101 to 500 nM and 1 to 100 nM. As to `Nc1nc2ccc(-c3cnc4[nH]ccc4c3F)cn2c1C(=O)[C@@H]1C[C@@H]1F` [Example 69], the IC50 was 501 to 1000 nM in experiment [1] and 1 to 100 nM in experiment [2]. For `Nc1nc2ccc(-c3ccc4[nH]ccc4c3Cl)cn2c1C(=O)[C@@H]1C[C@@H]1F` [Example 73] the same measures were 101 to 500 nM and 1 to 100 nM. For `Cc1c(-c2ccc3nc(N)c(C(=O)c4ccccn4)n3c2)cnc2[nH]ccc12` [Example 74] the same measures were 101 to 500 nM and 1 to 100 nM.

As to `Nc1nc2ccc(-c3cnc4[nH]ccc4c3Cl)cn2c1C(=O)c1ccccn1` [Example 75], the IC50 fell in the range of 501 to 1000 nM in experiment [1] and 1 to 100 nM in experiment [2]. Regarding `Nc1nc2ccc(-c3cnc4[nH]ccc4c3)cn2c1C(=O)c1ncccn1` [Example 79], the IC50 in experiment [1] is over 1000 nM; in experiment [2], 1 to 100 nM. As for `Cc1c(-c2ccc3nc(N)c(C(=O)C4CNC4)n3c2)cnc2[nH]ccc12` [Example 82], the half-maximal inhibitory concentration (IC50) was over 1000 nM in experiment [1] and 1 to 100 nM in experiment [2]. For `Nc1nc2ccc(-c3cnc4[nH]ccc4c3Cl)cn2c1C(=O)C1CNC1` [Example 83] the same measures were over 1000 nM and 1 to 100 nM.

Turning to `Cc1c(-c2ccc3nc(N)c(C(=O)c4ccncn4)n3c2)cnc2[nH]ccc12` [Example 84], the IC50 in experiment [1] lay within 501 to 1000 nM; in experiment [2], 1 to 100 nM. The like results for `Cc1c(-c2ccc3nc(N)c(C(=O)c4ncccn4)n3c2)cnc2[nH]ccc12` [Example 85] were, in that order, 501 to 1000 nM and 1 to 100 nM. The like results for `Nc1nc2ccc(-c3cnc4[nH]ccc4c3)cn2c1C(=O)C1CNC1` [Example 86] were, in that order, over 1000 nM and 1 to 100 nM. The like results for `Cc1c(-c2ccc3nc(N)c(C(=O)[C@@H]4C[C@@H]4F)n3c2)ccc2[nH]ncc12` [Example 90] were, in that order, 501 to 1000 nM and 1 to 100 nM. As for `Cc1c(-c2ccc3nc(N)c(C(=O)C4CCNC4)n3c2)cnc2[nH]ccc12` (stereo not shown) [Example 94], the IC50 is over 1000 nM in experiment [1] and 1 to 100 nM in experiment [2]. For `Nc1nc2ccc(-c3cnc4[nH]ccc4c3Cl)cn2c1C(=O)C1CCNC1` (stereo not shown) [Example 95] the same measures were over 1000 nM and 1 to 100 nM.

Take `Cc1ccc2[nH]ccc2c1-c1ccc2nc(N)c(C(=O)[C@@H]3C[C@@H]3F)n2c1` [Example 100]: the IC50 in experiment [1] is 101 to 500 nM; in experiment [2], 1 to 100 nM. For the compound `Nc1nc2ccc(-c3c(F)ccc4[nH]ccc34)cn2c1C(=O)[C@@H]1C[C@@H]1F` [Example 101], the IC50 was in the range of 501 to 1000 nM in experiment [1] and 1 to 100 nM in experiment [2].

In the case of `Nc1nc2ccc(-c3ccccc3CCO)cn2c1C(=O)[C@@H]1C[C@@H]1F` [Example 128], the IC50 in experiment [2] lay in the range of 101 to 500 nM. On to `Nc1nc2ccc(-c3ccccc3CCCO)cn2c1C(=O)[C@@H]1C[C@@H]1F` [Example 129], for which the concentration for half-maximal inhibition (IC50) in experiment [2] is 101 to 500 nM. For the compound `Nc1nc2ccc(-c3ccccc3CCF)cn2c1C(=O)[C@@H]1C[C@@H]1F` [Example 130], the IC50 in experiment [2] lay in the range of 101 to 500 nM. In the case of `Nc1nc2ccc(-c3cccc(F)c3CCCF)cn2c1C(=O)[C@@H]1C[C@@H]1F` [Example 131], the IC50 in experiment [2] fell in the range of 101 to 500 nM. In the case of `Nc1nc2ccc(-c3ccccc3CCCF)cn2c1C(=O)[C@@H]1C[C@@H]1F` [Example 132], the IC50 in experiment [2] was in the range of 101 to 500 nM.

As to `Cc1c(N)cc(F)cc1-c1ccc2nc(N)c(C(=O)[C@@H]3C[C@@H]3F)n2c1` [Example 133], the IC50 in experiment [2] lay within 1 to 100 nM.

Take `Cc1cc(-c2ccc3nc(N)c(C(=O)[C@@H]4C[C@@H]4F)n3c2)c(F)cc1N` [Example 134]: in experiment [2], the IC50 was in the range of 1 to 100 nM.

With `COC(=O)c1c(N)nc2ccc(-c3cccc(F)c3C)cn12` [Example 135, methyl 2-amino-6-(3-fluoro-2-methylphenyl)imidazo[1,2-a]pyridine-3-carboxylate], the IC50 in experiment [2] was in the range of 101 to 500 nM. The same measure, in the same setting: with `Nc1nc2ccc(-c3cccc(F)c3CCF)cn2c1C(=O)[C@@H]1C[C@@H]1F` [Example 136] the figure was over 1000 nM. Still for that read-out and setting: with `CC(C)(C)OC(=O)NCc1ccccc1-c1ccc2nc(N)c(C(=O)[C@@H]3C[C@@H]3F)n2c1` [Example 137] the figure was over 1000 nM; with `NCc1ccccc1-c1ccc2nc(N)c(C(=O)[C@@H]3C[C@@H]3F)n2c1` [Example 138], over 1000 nM. Same read-out and setting: the result for `Nc1nc2ccc(-c3ccccc3CCF)cn2c1C(=O)[C@@H]1C[C@H]1F` [Example 139] reads over 1000 nM. As for `Nc1nc2ccc(-c3ccccc3CCF)cn2c1C(=O)[C@H]1C[C@@H]1F` [Example 140], the IC50 in experiment [2] was over 1000 nM. The same measure, in the same setting: the result for `Cc1ccc(N)cc1-c1ccc2nc(N)c(C(=O)[C@@H]3C[C@@H]3F)n2c1` [Example 142] reads 1 to 100 nM. With `Cc1cccc(N)c1-c1ccc2nc(N)c(C(=O)[C@@H]3C[C@@H]3F)n2c1` [Example 143], the 50% inhibitory concentration (IC50) in experiment [2] was over 1000 nM. Same read-out and setting: the result for `CO/C=C/c1c(F)cccc1-c1ccc2nc(N)c(C(=O)[C@@H]3C[C@@H]3F)n2c1` [Example 144] reads 101 to 500 nM; that for `C=Cc1c(F)cccc1-c1ccc2nc(N)c(C(=O)[C@@H]3C[C@@H]3F)n2c1` [Example 145], 1 to 100 nM; that for `CNc1cc(F)cc(-c2ccc3nc(N)c(C(=O)[C@@H]4C[C@@H]4F)n3c2)c1C` [Example 146], 101 to 500 nM.

For the compound `Cc1c(-c2ccc3nc(N)c(C(=O)[C@@H]4C[C@@H]4F)n3c2)cc(F)cc1N(C)C` [Example 147], in experiment [2], the IC50 lay in the range of 101 to 500 nM. Still for that read-out and setting: with `Cc1c(F)cccc1Nc1ccc2nc(N)c(C(=O)[C@@H]3C[C@@H]3F)n2c1` [Example 148, (2-amino-6-((3-fluoro-2-methylphenyl)amino)imidazo[1,2-a]pyridin-3-yl)((1S,2S)-2-fluorocyclopropyl)methanone] the figure was 101 to 500 nM. Same read-out and setting: with `CN(C)c1c(F)c(Cl)c(-c2ccc3nc(N)c(C(=O)NC4CC4)n3c2)c2cn[nH]c12` [Example 149] the figure was over 1000 nM; with `CSc1c(F)c(Cl)c(-c2ccc3nc(N)c(C(=O)O[C@@H]4COC[C@H]4C)n3c2)c2cn[nH]c12` [Example 151, (3S,4R)-4-methyltetrahydrofuran-3-yl 2-amino-6-(5-chloro-6-fluoro-7-(methylthio)-1H-indazol-4-yl)imidazo[1,2-a]pyridine-3-carboxylate], over 1000 nM; with `Cc1c(F)cc(N)cc1-c1ccc2nc(N)c(C(=O)[C@@H]3C[C@@H]3F)n2c1` [Example 155], 1 to 100 nM.

In the case of `Nc1nc2ccc(-c3ccc4[nH]ccc4c3)cn2c1C(=O)[C@H]1C[C@H]1F` [Example 156], the 50% inhibitory concentration (IC50) in experiment [2] lay within 1 to 100 nM. Take `Nc1nc2ccc(-c3ccc4[nH]ccc4c3)cn2c1C(=O)[C@H]1C[C@@H]1F` [Example 157]: the IC50 in experiment [2] lay in the range of 1 to 100 nM.

With `Nc1nc2ccc(-c3ccc4[nH]ccc4c3)cn2c1C(=O)[C@@H]1C[C@H]1F` [Example 158], the IC50 in experiment [2] lay in the range of 1 to 100 nM. On the same count and under the same terms, the result for `Cc1c(-c2ccc3nc(N)c(C(=O)[C@H]4C[C@H]4F)n3c2)ccc2[nH]ccc12` [Example 159] reads 1 to 100 nM; that for `Cc1c(F)cccc1Oc1ccc2nc(N)c(C(=O)[C@@H]3C[C@@H]3F)n2c1` [Example 160], 101 to 500 nM; that for `Cc1c(-c2ccc3nc(N)c(C(=O)[C@H]4C[C@@H]4F)n3c2)ccc2[nH]ccc12` [Example 161], 1 to 100 nM. As to `Cc1c(-c2ccc3nc(N)c(C(=O)[C@@H]4C[C@H]4F)n3c2)ccc2[nH]ccc12` [Example 162], the IC50 in experiment [2] lay in the range of 1 to 100 nM.
